From patent publication US12036224B2, “Formulations, methods, kits, and dosage forms for treating atopic dermatitis and for improved stability of an active pharmaceutical ingredient” (Libertas Bio, Inc., priority 2017, dated 2024)
Converted amounts (≈) assume the structure as drawn. “Also recorded” adds a separate entry of the source.

What was measured:
[1] = HCl pH dependent solubility profile study; type: physicochemical; settings: thermodynamic from solid
From the text: (§1) Analytical studies for 2-(1-(4-((4-(4-hydroxypiperidin-1-yl)phenyl)amino)-5-oxo-5,6-dihydropyrimido[4,5-d]pyridazin-2-yl)piperidin-4-yl)acetonitrile are provided below in Tables 1-3: Table 1 provides the results of an HCl pH dependent solubility profile study, Table 2 provides the results of an HCl solubility profile in organic solvents, and Table 3 provides the results of an HCl stress study.

[2] = HCl stress study; type: physicochemical
From the text: as §1

[3] = system: subjects with moderate-to severe atopic dermatitis; experiment: Phase 1b study in atopic dermatitis: safety and tolerability; type: in vivo, human
Experimental: The study conducted was a randomized, double-blind, placebo-controlled, multicenter, sequential dose escalation study in subjects with moderate-to severe atopic dermatitis. The study included a screening period (up to 30 days) and a treatment period for 4 weeks with a 14 day follow up period that concluded with an end-of-study visit. Three sequential cohorts of 20, 40 and 80 mg QD were evaluated. At each dose level a total of 12 subjects were enrolled with 9 subjects receiving Compound 1, and 3 subjects receiving matching placebos.
Assessment of safety: Safety was assessed by AEs, vital signs, 12-lead ECG, physical examination, and laboratory safety assessments.

[4] = system: JAK/STAT pathway in T cells (primary); experiment: Inhibition of JAK/STAT pathway in T cells stimulated with various cytokines; type: cell-based; settings: T cells (primary) stimulated by various cytokines
Experimental: FIG. 7A is a graph of the % of subjects to achieve EASI50 over time (Day 1 to Day 29) for a placebo and Compound 1 in the doses of 20 mg, 40 mg and 80 mg. FIG. 7B is a graph of the % of subjects to achieve EASI75 over time (Day 1 to Day 29) for a placebo and Compound 1 in the doses of 20 mg, 40 mg and 80 mg. […] FIG. 8A is a graph of the % CFB (percentage change from baseline) for EASI (decrease) for the placebo and Compound 1 in the doses of 20 mg, 40 mg and 80 mg. FIG. 8B is a graph of the % CFB for BSA (body surface area) (decrease) for the placebo and Compound 1 in the doses of 20 mg, 40 mg and 80 mg. FIG. 8C is a graph of the % CFB for IGA 0-1 (Investigator's Global Assessment) for the placebo and Compound 1 in the doses of 20 mg, 40 mg and 80 mg. FIG. 9 is a graph of day 15 plasma concentration for Compound 1 in the doses of 20 mg, 40 mg and 80 mg. […] In FIG. 10, the IC50 values were determined in biochemical kinase assays using purified partial or full length enzymes. FIG. 11 is a chart showing inhibition of Compound 1 in JAK/STAT pathway in T cells stimulated with various cytokines.

[5] = system: IL-17-SYK mediated CCL20 release, human keratinocytes; experiment: Inhibition of IL17 mediated CCL20 release in keratinocytes; type: cell-based; settings: single donor, n=3
Experimental: In FIG. 12, each bar represents mean and SEM for 3 replicates (n=3) of a single donor. FIG. 13 is a graph showing average weekly change in pruritus (NRS) for a placebo, and Compound 1 in the doses of 20 mg, 40 mg and 80 mg.

[6] = system: ibrutinib-resistant cell lines; experiment: Pre-clinical proliferation in ibrutinib-resistant cell lines; type: cell-based
From the text: (§2) A formulation of the disclosure comprising 2-(1-(4-((4-(4-hydroxypiperidin-1-yl)phenyl)amino)-5-oxo-5,6-dihydropyrimido[4,5-d]pyridazin-2-yl)piperidin-4-yl)acetonitrile comprises a potent inhibitor of Spleen Tyrosine Kinase (SYK) and Janus Kinases (JAK).

[7] = system: rodent xenograft models of NHL and other hematologic malignancies; experiment: Rodent xenograft models of NHL and other hematologic malignancies; type: in vivo
From the text: as §2

[8] = Phase 1/2 trial in solid tumors and hematologic malignancies: pharmacokinetics; type: in vivo, human
Experimental: (§3) Methods: Phase 1/2 clinical trial in patients with solid tumors and hematologic malignancies evaluates escalating oral doses of the formulation disclosed herein at 10, 20, 30, 40, 50, 75 and 100 mg BID and 80 and 120 mg QD mg (NCT02440685). Phase 1 allows patients with solid tumors or hematologic malignancies; Phase 2 allows only patients with diffuse large B-Cell lymphoma (DLBCL), follicular lymphoma (FL) or mantle cell lymphoma (MCL). Endpoints include safety, tolerability, pharmacokinetics, serum markers of inflammation, and response using RECIST or Lugano Classification System, […]

[9] = system: patients with solid tumors and hematologic malignancies; experiment: Phase 1/2 trial in solid tumors and hematologic malignancies: safety and tolerability; type: in vivo, human
Experimental: as §3

[10] = system: patients with solid tumors and hematologic malignancies; experiment: Phase 1/2 trial in solid tumors and hematologic malignancies: response and serum markers; type: in vivo, human
Experimental: as §3

[11] = 10 mg-100 mg BID and 80-120 mg QD

`N#CCC1CCN(c2nc(Nc3ccc(N4CCC(O)CC4)cc3)c3c(=O)[nH]ncc3n2)CC1` [Compound 1, 2-(1-(4-((4-(4-hydroxypiperidin-1-yl)phenyl)amino)-5-oxo-5,6-dihydropyrimido[4,5-d]pyridazin-2-yl)piperidin-4-yl)acetonitrile] showed a solubility ([1]; aqueous buffer, pH 4.5 Acetate Buffer, initial pH 4.50, end pH 4.56) of 2.9 µg/mL (≈ 6.3 µM), a solubility ([1]; aqueous buffer, pH 5.5 Acetate Buffer, initial pH 5.52, end pH 5.12) of 1 µg/mL (≈ 2.17 µM) and a solubility ([1]; aqueous buffer, pH 6.8 Phosphate Buffer, initial pH 6.80, end pH 6.86) of 2.7 µg/mL (≈ 5.86 µM). For the same compound, the solubility ([1]; aqueous buffer, pH 7.5 Phosphate Buffer, initial pH 7.55, end pH 6.96) was 0.7 µg/mL (≈ 1.52 µM), the solubility ([1]; simulated gastric fluid, 0.1N HCl, end pH 1.23) was 10800 µg/mL (≈ 23500 µM) and the solubility ([1]; Water, end pH 2.62) was 941 µg/mL (≈ 2040 µM). The “% API based on Peak Area %” value ([2]; 1N HCl, rt, 24 hr) was 100.00%, the “% API based on Peak Area %” value ([2]; 1N NaOH, rt, 24 hr) was 99.54% and the “% API based on Peak Area %” value ([2]; 3% H2O2, rt, 30 hr) was 83.00%. For the same compound, the “% API based on Peak Area %” value ([2]; 80° C., 24 hr) was 99.93%, the “% API based on Peak Area %” value ([2]; UV, 23 hr) was 99.80% and the “changes in chemistry lab parameters” value ([3]; in vivo) was “No clinically significant changes in chemistry lab parameters except asymptomatic, mild-to-moderate transient elevations of CPK”. For the same compound, the “changes in hematologic lab parameters including platelets, neutrophils and lymphocytes” value ([3]; in vivo) was “No clinically significant changes”, the “changes in lipid profile” value ([3]; in vivo) was “No changes in lipid profile” and the “serious infections or thromboembolic events” value ([3]; in vivo) was “No serious infections or thromboembolic events occurred”. The tolerability ([3]; patients with moderate to severe atopic dermatitis, 20, 40, 80 mg once daily) was “well tolerated; also recorded: very well tolerated at all dose levels”, the “most common adverse events” value ([3]; predominantly Day 1) was “transient, mild headache and nausea” and the “inhibition of JAK/STAT pathway” value [4] was “strong inhibition”. For the same compound, the “inhibition of IL-17-SYK mediated CCL20 release” value [5] was “inhibits IL-17-SYK mediated CCL20 release, from human keratinocytes, at levels similar to IL17 neutralizing antibodies”, the proliferation [6] was “decreases proliferation” and the tumor growth [7] was “suppresses tumor growth”. For the same compound, the “systemic exposure (in words)” value ([8]; 80 mg QD) was “High systemic exposure”, the half-life ([8]; human, in vivo, steady-state, 40 mg BID, oral) was 18 h and the AUC(0-t) ([8]; human, in vivo, steady-state, 40 mg BID, oral, read-out: AUC (0-12 h)) was 6.3 µM·h. For the same compound, the Cmax ([8]; steady-state, 40 mg BID, oral) was 700 nM, the “dose limiting adverse events” value [9, 11] was “No dose limiting adverse events” and the tolerability [9, 11] was “safe and well tolerated”. The MTD ([9]; dose escalation continues) was “has not been reached”, the “grade of most drug-related adverse events” value ([9]; e.g. headache, fatigue) was “Gr 1/2” and the “reduction in target lesions” value ([10]; 3 months, a FL patient (Lugano, 6 prior lines)) was “About 50%”. The “response in a peripheral T-Cell lymphoma patient” value ([10]; after 2 months (Lugano, 2 prior lines)) was “stable disease and reduction of pruritus”, the “CRP, IL-18, MIP1β, VCAM-1, TNFR2 (serum markers of inflammation)” value ([10]; all doses) was “Robust reduction” and the “efficacy in NHL patients (in words)” value ([10]; in vivo) was “Encouraging preliminary evidence of efficacy”.
